ChEMBL document CHEMBL1671764, “In vitro and in vivo activities of LCB01-0371, a new oxazolidinone” (2010)
Calls of active or inactive are those of the source.

What was measured:
Staphylococcus aureus [1] = assay: Antibacterial activity against 1 x 10^7 CFU methicillin-susceptible Staphylococcus aureus Giorgio after 18 hrs by CLSI 2-fold agar dilution method; assay type: functional
Enterococcus faecalis [2] = assay: Antibacterial activity against 10^4 to 10^5 CFU Enterococcus faecalis after 18 hrs by CLSI 2-fold agar dilution method; assay type: functional
Staphylococcus aureus [3] = assay: Antibacterial activity against methicillin-resistant Staphylococcus aureus p125 assessed as bacteriostatic at MIC after 24 hrs by […] method; assay type: functional, organism-based
Staphylococcus aureus [4] = assay: Antibacterial activity against 10^4 to 10^5 CFU methicillin-resistant Staphylococcus aureus after 18 hrs by CLSI 2-fold agar dilution method; assay type: functional
Streptococcus pneumoniae [5] = assay: Antibacterial activity against 1 x 10^4 CFU Streptococcus pneumoniae ATCC 6305 after 18 hrs by CLSI 2-fold agar dilution method; assay type: functional; details: ATCC 6305, 18 h
Staphylococcus aureus [6] = assay: Antibacterial activity against methicillin-resistant Staphylococcus aureus p125 assessed as bacterial regrowth at 4 times MIC after 24 hrs by […] method; assay type: functional, organism-based
Staphylococcus aureus [7] = assay: Antibacterial activity against methicillin-resistant Staphylococcus aureus p125 assessed as bacteriostatic at 8 times MIC after 24 hrs by […] method; assay type: functional, organism-based
Haemophilus influenzae [8] = assay: Antibacterial activity against 10^4 to 10^5 CFU Haemophilus influenzae after 18 hrs by CLSI 2-fold agar dilution method; assay type: functional
Staphylococcus aureus [9] = assay: Antibacterial activity against methicillin-resistant Staphylococcus aureus p125 assessed as bacterial regrowth at 8 times MIC after 24 hrs by […] method; assay type: functional, organism-based
Enterococcus = assay: Antibacterial activity against 10^4 to 10^5 CFU vancomycin-resistant Enterococcus after 18 hrs by CLSI 2-fold agar dilution method; assay type: functional
Staphylococcus aureus [10] = assay: Antibacterial activity against methicillin-susceptible Staphylococcus aureus Giorgio assessed as bacteriostatic at MIC after 24 hrs by […] method; assay type: functional, organism-based
Staphylococcus [11] = assay: Antibacterial activity against 10^4 to 10^5 CFU methicillin-resistant coagulase-negative Staphylococcus after 18 hrs by CLSI 2-fold agar dilution method; assay type: functional
Moraxella catarrhalis = assay: Antibacterial activity against 10^4 to 10^5 CFU Moraxella catarrhalis after 18 hrs by CLSI 2-fold agar dilution method; assay type: functional
Haemophilus influenzae [12] = assay: Antibacterial activity against 7.5 x 10^8 CFU Haemophilus influenzae hd2 after 18 hrs by CLSI 2-fold agar dilution method; assay type: functional; details: hd2, 18 h
Staphylococcus aureus [13] = assay: Antibacterial activity against methicillin-susceptible Staphylococcus aureus Giorgio assessed as bacterial regrowth at 4 times MIC after 24 hrs by […] method; assay type: functional, organism-based
Streptococcus pneumoniae [14] = assay: Antibacterial activity against 10^4 to 10^5 CFU Streptococcus pneumoniae after 18 hrs by CLSI 2-fold agar dilution method; assay type: functional
Streptococcus pyogenes = assay: Antibacterial activity against 10^4 to 10^5 CFU Streptococcus pyogenes after 18 hrs by CLSI 2-fold agar dilution method; assay type: functional
Staphylococcus [15] = assay: Antibacterial activity against 10^4 to 10^5 CFU methicillin-susceptible coagulase-negative Staphylococcus after 18 hrs by CLSI 2-fold agar dilution method; assay type: functional
Staphylococcus aureus [16] = assay: Antibacterial activity against 1 x 10^8 CFU methicillin-resistant Staphylococcus aureus p125 after 18 hrs by CLSI 2-fold agar dilution method; assay type: functional; details: p125, 18 h
Staphylococcus aureus [17] = assay: Antibacterial activity against methicillin-resistant Staphylococcus aureus p125 assessed as bacteriostatic at 4 times MIC after 24 hrs by […] method; assay type: functional, organism-based
Staphylococcus aureus [18] = assay: Antibacterial activity against methicillin-resistant Staphylococcus aureus p125 assessed as bacteriostatic at 2 times MIC after 24 hrs by […] method; assay type: functional, organism-based
Enterococcus faecium = assay: Antibacterial activity against 10^4 to 10^5 CFU Enterococcus faecium after 18 hrs by CLSI 2-fold agar dilution method; assay type: functional
Staphylococcus aureus [19] = assay: Antibacterial activity against methicillin-susceptible Staphylococcus aureus Giorgio assessed as bacteriostatic at 4 times MIC after 24 hrs by […] method; assay type: functional, organism-based
Staphylococcus aureus [20] = assay: Antibacterial activity against methicillin-susceptible Staphylococcus aureus Giorgio assessed as bacteriostatic at 8 times MIC after 24 hrs by […] method; assay type: functional, organism-based
Staphylococcus aureus [21] = assay: Antibacterial activity against methicillin-susceptible Staphylococcus aureus Giorgio assessed as bacterial regrowth at 8 times MIC after 24 hrs by […] method; assay type: functional, organism-based
Enterococcus faecalis [22] = assay: Antibacterial activity against 2 x 10^8 CFU Enterococcus faecalis u810 after 18 hrs by CLSI 2-fold agar dilution method; assay type: functional; details: u810, 18 h
Staphylococcus aureus [23] = assay: Antibacterial activity against 10^4 to 10^5 CFU methicillin-susceptible Staphylococcus aureus after 18 hrs by CLSI 2-fold agar dilution method; assay type: functional
Staphylococcus aureus [24] = assay: Antibacterial activity against methicillin-susceptible Staphylococcus aureus Giorgio assessed as bacteriostatic at 2 times MIC after 24 hrs by […] method; assay type: functional, organism-based

CN1CCN(c2ccc(N3C[C@H](CO)OC3=O)cc2F)C=N1 [DELPAZOLID]
1 µg/mL: MIC (Staphylococcus aureus [1]) | MIC50 (Staphylococcus aureus [4]) | MIC (Enterococcus) | MIC50 (Enterococcus) | MIC90 (Enterococcus) | MIC90 (Streptococcus pneumoniae [14]) | MIC50 (Streptococcus pyogenes) | MIC (Staphylococcus aureus [16]) | MIC50 (Staphylococcus aureus [23])
8 µg/mL: MIC50 (Haemophilus influenzae [8]) | MIC90 (Haemophilus influenzae [8]) | MIC90 (Moraxella catarrhalis) | MIC (Haemophilus influenzae [12])
active: Activity (Staphylococcus aureus [3]) | Activity (Staphylococcus aureus [6]) | Activity (Staphylococcus aureus [7]) | Activity (Staphylococcus aureus [9]) | Activity (Staphylococcus aureus [10]) | Activity (Staphylococcus aureus [13]) | Activity (Staphylococcus aureus [17]) | Activity (Staphylococcus aureus [18]) | Activity (Staphylococcus aureus [19]) | Activity (Staphylococcus aureus [20]) | Activity (Staphylococcus aureus [21]) | Activity (Staphylococcus aureus [24])
0.5 µg/mL: MIC (Streptococcus pneumoniae [5]) | MIC (Staphylococcus [11]) | MIC50 (Staphylococcus [11]) | MIC90 (Staphylococcus [11]) | MIC50 (Streptococcus pneumoniae [14]) | MIC (Staphylococcus [15]) | MIC50 (Staphylococcus [15]) | MIC90 (Staphylococcus [15])
4 µg/mL: MIC50 (Moraxella catarrhalis)
2 µg/mL: MIC50 (Enterococcus faecalis [2]) | MIC90 (Enterococcus faecalis [2]) | MIC90 (Staphylococcus aureus [4]) | MIC90 (Streptococcus pyogenes) | MIC50 (Enterococcus faecium) | MIC90 (Enterococcus faecium) | MIC (Enterococcus faecalis [22]) | MIC90 (Staphylococcus aureus [23])

CC[C@H]1OC(=O)[C@H](C)[C@@H](O[C@H]2C[C@@](C)(OC)[C@@H](O)[C@H](C)O2)[C@H](C)[C@@H](O[C@@H]2O[C@H](C)C[C@H](N(C)C)[C@H]2O)[C@](C)(O)C[C@@H](C)C(=O)[C@H](C)[C@@H](O)[C@]1(C)O [ERYTHROMYCIN]
> 64 µg/mL: MIC50 (Enterococcus faecalis [2]) | MIC90 (Enterococcus faecalis [2]) | MIC50 (Staphylococcus aureus [4]) | MIC90 (Haemophilus influenzae [8]) | MIC50 (Enterococcus) | MIC90 (Enterococcus) | MIC50 (Staphylococcus [11]) | MIC90 (Streptococcus pneumoniae [14]) | MIC90 (Staphylococcus [15]) | MIC50 (Enterococcus faecium) | MIC90 (Enterococcus faecium) | MIC90 (Staphylococcus aureus [23])
2 µg/mL: MIC90 (Streptococcus pyogenes)
0.06 µg/mL: MIC50 (Streptococcus pyogenes)
0.25 µg/mL: MIC50 (Staphylococcus [15]) | MIC50 (Staphylococcus aureus [23])
64 µg/mL: MIC (Haemophilus influenzae [8]) | MIC50 (Haemophilus influenzae [8]) | MIC50 (Streptococcus pneumoniae [14])

CO/N=C1\CN(c2nc3c(cc2F)c(=O)c(C(=O)O)cn3C2CC2)CC1CN (centres undefined) [GEMIFLOXACIN]
1 µg/mL: MIC90 (Staphylococcus [11])
0.008 µg/mL: MIC (Haemophilus influenzae [8]) | MIC50 (Haemophilus influenzae [8]) | MIC90 (Haemophilus influenzae [8])
0.5 µg/mL: MIC50 (Enterococcus) | MIC50 (Staphylococcus [11]) | MIC90 (Staphylococcus [15])
0.03 µg/mL: MIC50 (Streptococcus pneumoniae [14]) | MIC50 (Streptococcus pyogenes)
4 µg/mL: MIC90 (Enterococcus faecalis [2])
64 µg/mL: MIC90 (Staphylococcus aureus [4])
2 µg/mL: MIC50 (Staphylococcus aureus [4]) | MIC90 (Enterococcus) | MIC50 (Enterococcus faecium)
0.06 µg/mL: MIC90 (Streptococcus pneumoniae [14]) | MIC90 (Streptococcus pyogenes) | MIC90 (Staphylococcus aureus [23])
16 µg/mL: MIC90 (Enterococcus faecium)
0.125 µg/mL: MIC50 (Enterococcus faecalis [2])
0.015 µg/mL: MIC50 (Staphylococcus [15]) | MIC50 (Staphylococcus aureus [23])
< 0.008 µg/mL: MIC50 (Moraxella catarrhalis) | MIC90 (Moraxella catarrhalis)
